Experiments:
[1] = system: green foxtail; assay: Test Example 4: herbicidal effect by soil treatment (Table 19, symbol G); assay type: in vivo, green foxtail (Setaria viridis); settings: amount of applied herbicide 320 g/ha
Procedure, shortened: (§1)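 Applied as a water-diluted emulsion, the compound was sprayed onto soil covering newly sown seeds. Evaluation came three weeks after application, in a greenhouse held at 25° C. to 30° C.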

[2] = system: wild oat; assay: Test Example 4: herbicidal effect by soil treatment (Table 19, symbol I); assay type: in vivo, wild oat (Avena fatua); settings: amount of applied herbicide 320 g/ha
Procedure, shortened: as §1

[3] = system: windgrass; assay: Test Example 4: herbicidal effect by soil treatment (Table 19, symbol L); assay type: in vivo, windgrass (Apera spica-venti); settings: amount of applied herbicide 320 g/ha
Procedure, shortened: as §1

[4] = system: Italian ryegrass; assay: Test Example 5: herbicidal effect by foliage application, plastic box (Table 20, symbol K); assay type: in vivo, Italian ryegrass (Lolium multiflorum); settings: foliage application
Procedure, shortened: (§2)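 Sow seeds spot-wise in sterilized diluvial soil; cover with ~1.5 cm soil. Grow 14 days in greenhouse, 25° C. to 30° C. Spray foliage with emulsion diluted to predetermined amount. Rate effect after 3 weeks.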

[5] = system: Chinese sprangletop; assay: Test Example 3: herbicidal effect by foliage application, Wagner pot (Table 18, symbol D); assay type: in vivo, chinese sprangletop (Leptochloa chinensis)
Procedure, shortened: (§3)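 Plants were sown in alluvial soil held under 0.1–0.5 cm standing water and grown 14 days in a greenhouse at 25–30 °C. An emulsifiable formulation, water-diluted to the set dose, was then sprayed onto the foliage, and effects were scored three weeks later using previously defined criteria.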

[6] = system: persian speedwell; assay: Test Example 4: herbicidal effect by soil treatment (Table 19, symbol R); assay type: in vivo, Persian speedwell (Veronica persica); settings: amount of applied herbicide 320 g/ha
Procedure, shortened: as §1

[7] = system: chickweed; assay: Test Example 4: herbicidal effect by soil treatment (Table 19, symbol P); assay type: in vivo, common chickweed (Stellaria media); settings: amount of applied herbicide 320 g/ha
Procedure, shortened: as §1

[8] = system: chickweed; assay: Test Example 5: herbicidal effect by foliage application, plastic box (Table 20, symbol P); assay type: in vivo, common chickweed (Stellaria media); settings: foliage application
Procedure, shortened: as §2

[9] = system: lambsquarters; assay: Test Example 4: herbicidal effect by soil treatment (Table 19, symbol O); assay type: in vivo, lambsquarters (Chenopodium album); settings: amount of applied herbicide 320 g/ha
Procedure, shortened: as §1

[10] = system: wild oat; assay: Test Example 5: herbicidal effect by foliage application, plastic box (Table 20, symbol I); assay type: in vivo, wild oat (Avena fatua); settings: foliage application
Procedure, shortened: as §2

[11] = system: windgrass; assay: Test Example 5: herbicidal effect by foliage application, plastic box (Table 20, symbol L); assay type: in vivo, windgrass (Apera spica-venti); settings: foliage application
Procedure, shortened: as §2

[12] = system: green foxtail; assay: Test Example 5: herbicidal effect by foliage application, plastic box (Table 20, symbol G); assay type: in vivo, green foxtail (Setaria viridis); settings: foliage application
Procedure, shortened: as §2

[13] = system: southern crabgrass; assay: Test Example 5: herbicidal effect by foliage application, plastic box (Table 20, symbol F); assay type: in vivo, southern crabgrass (Digitaria ciliaris); settings: foliage application
Procedure, shortened: as §2

[14] = system: barnyard grass; assay: Test Example 4: herbicidal effect by soil treatment (Table 19, symbol H); assay type: in vivo, barnyard grass (Echinochloa crus-galli); settings: amount of applied herbicide 320 g/ha
Procedure, shortened: as §1

[15] = system: false cleavers; assay: Test Example 4: herbicidal effect by soil treatment (Table 19, symbol Q); assay type: in vivo, false cleavers (Galium spurium); settings: amount of applied herbicide 320 g/ha
Procedure, shortened: as §1

[16] = system: barnyard grass; assay: Test Example 5: herbicidal effect by foliage application, plastic box (Table 20, symbol H); assay type: in vivo, barnyard grass (Echinochloa crus-galli); settings: foliage application
Procedure, shortened: as §2

[17] = system: southern crabgrass; assay: Test Example 4: herbicidal effect by soil treatment (Table 19, symbol F); assay type: in vivo, southern crabgrass (Digitaria ciliaris); settings: amount of applied herbicide 320 g/ha
Procedure, shortened: as §1

[18] = system: velvetleaf; assay: Test Example 5: herbicidal effect by foliage application, plastic box (Table 20, symbol M); assay type: in vivo, velvetleaf (Abutilon theophrasti); settings: foliage application
Procedure, shortened: as §2

[19] = system: barnyard grass; assay: Test Example 3: herbicidal effect by foliage application, Wagner pot (Table 18, symbol H); assay type: in vivo, barnyard grass (Echinochloa crus-galli)
Procedure, shortened: as §3

[20] = system: blackgrass; assay: Test Example 5: herbicidal effect by foliage application, plastic box (Table 20, symbol J); assay type: in vivo, blackgrass (Alopecurus myosuroides); settings: foliage application
Procedure, shortened: as §2

[21] = system: Italian ryegrass; assay: Test Example 4: herbicidal effect by soil treatment (Table 19, symbol K); assay type: in vivo, Italian ryegrass (Lolium multiflorum); settings: amount of applied herbicide 320 g/ha
Procedure, shortened: as §1

[22] = system: redroot pigweed; assay: Test Example 4: herbicidal effect by soil treatment (Table 19, symbol N); assay type: in vivo, redroot pigweed (Amaranthus retroflexus); settings: amount of applied herbicide 320 g/ha
Procedure, shortened: as §1

[23] = system: velvetleaf; assay: Test Example 4: herbicidal effect by soil treatment (Table 19, symbol M); assay type: in vivo, velvetleaf (Abutilon theophrasti); settings: amount of applied herbicide 320 g/ha
Procedure, shortened: as §1

[24] = system: rice flat sedge; assay: Test Example 3: herbicidal effect by foliage application, Wagner pot (Table 18, symbol E); assay type: in vivo, rice flat sedge (Cyperus iria)
Procedure, shortened: as §3

[25] = system: persian speedwell; assay: Test Example 5: herbicidal effect by foliage application, plastic box (Table 20, symbol R); assay type: in vivo, Persian speedwell (Veronica persica); settings: foliage application
Procedure, shortened: as §2

[26] = system: blackgrass; assay: Test Example 4: herbicidal effect by soil treatment (Table 19, symbol J); assay type: in vivo, blackgrass (Alopecurus myosuroides); settings: amount of applied herbicide 320 g/ha
Procedure, shortened: as §1

[27] = system: redroot pigweed; assay: Test Example 5: herbicidal effect by foliage application, plastic box (Table 20, symbol N); assay type: in vivo, redroot pigweed (Amaranthus retroflexus); settings: foliage application
Procedure, shortened: as §2

[28] = system: lambsquarters; assay: Test Example 5: herbicidal effect by foliage application, plastic box (Table 20, symbol O); assay type: in vivo, lambsquarters (Chenopodium album); settings: foliage application
Procedure, shortened: as §2

[29] = 320 g/ha, evaluated 3 weeks after application
[30] = amount of applied herbicide 320 g/ha
[31] = AAH 320 g/ha, three weeks after application

With `Cc1nn(C)c(=O)c(-c2c(-c3ccc(Cl)s3)oc3ccc(F)cc23)c1O` [9-047] the “G: green foxtail, herbicidal effect grade” value [1] was 0 (Herbicidal rate of 5% or less (almost no effect)), the “I: wild oat, herbicidal effect grade” value [2] was 0 (Herbicidal rate of 5% or less (almost no effect)) and the “L: windgrass, herbicidal effect grade” value [3] was 0 (Herbicidal rate of 5% or less (almost no effect)). The “K (Italian ryegrass) herbicidal effect grade” value [4, 29] was 4 (Herbicidal rate of 70% or more and less than 90%), the “Herbicidal effect on D (Chinese sprangletop), foliage application” value [5, 30] was 0 (Herbicidal rate of 5% or less (almost no effect)) and the “R: persian speedwell, herbicidal effect grade” value [6] was 1 (Herbicidal rate of 5% or more and less than 20%). The “P: chickweed, herbicidal effect grade” value [7] was 0 (Herbicidal rate of 5% or less (almost no effect)), the “P (chickweed) herbicidal effect grade” value [8, 29] was 5 (Herbicidal rate of 90% or more (almost completely withered)) and the “O: lambsquarters, herbicidal effect grade” value [9] was 0 (Herbicidal rate of 5% or less (almost no effect)). For the same compound, the “I (wild oat) herbicidal effect grade” value [10, 29] was 1 (Herbicidal rate of 5% or more and less than 20%), the “L (windgrass) herbicidal effect grade” value [11, 29] was 0 (Herbicidal rate of 5% or less (almost no effect)) and the “G (green foxtail) herbicidal effect grade” value [12, 29] was 2 (Herbicidal rate of 20% or more and less than 40%). The “F (southern crabgrass) herbicidal effect grade” value [13, 29] was 3 (Herbicidal rate of 40% or more and less than 70%), the “H: barnyard grass, herbicidal effect grade” value [14] was 0 (Herbicidal rate of 5% or less (almost no effect)) and the “Q: false cleavers, herbicidal effect grade” value [15] was 0 (Herbicidal rate of 5% or less (almost no effect)). The “H (barnyard grass) herbicidal effect grade” value [16, 29] was 3 (Herbicidal rate of 40% or more and less than 70%), the “F: southern crabgrass, herbicidal effect grade” value [17] was 0 (Herbicidal rate of 5% or less (almost no effect)) and the “M (velvetleaf) herbicidal effect grade” value [18, 29] was 2 (Herbicidal rate of 20% or more and less than 40%). For the same compound, the “Herbicidal effect on H (barnyard grass), foliage application” value [19, 30] was 2 (Herbicidal rate of 20% or more and less than 40%), the “J (blackgrass) herbicidal effect grade” value [20, 29] was 0 (Herbicidal rate of 5% or less (almost no effect)) and the “K: Italian ryegrass, herbicidal effect grade” value [21] was 4 (Herbicidal rate of 70% or more and less than 90%). For the same compound, the “N: redroot pigweed, herbicidal effect grade” value [22] was 3 (Herbicidal rate of 40% or more and less than 70%), the “M: velvetleaf, herbicidal effect grade” value [23] was 0 (Herbicidal rate of 5% or less (almost no effect)) and the “Herbicidal effect on E (rice flat sedge), foliage application” value [24, 30] was 3 (Herbicidal rate of 40% or more and less than 70%). The “R (persian speedwell) herbicidal effect grade” value [25, 29] was 4 (Herbicidal rate of 70% or more and less than 90%), the “J: blackgrass, herbicidal effect grade” value [26] was 0 (Herbicidal rate of 5% or less (almost no effect)) and the “N (redroot pigweed) herbicidal effect grade” value [27, 29] was 3 (Herbicidal rate of 40% or more and less than 70%). The “O (lambsquarters) herbicidal effect grade” value [28, 29] was 1 (Herbicidal rate of 5% or more and less than 20%).
`CCCC(=O)Oc1c(C)nn(C)c(=O)c1-c1c(-n2cc(Cl)cn2)sc2ccccc12` [Compound No. 1-098, 1,3-dimethyl-6-oxo-5-(2-(4-chloro-1H-pyrazol-1-yl)benzo[b]thiophen-3-yl)-1,6-dihydropyridazin-4-yl=(n-butyrate)] was tested, and the “herbicidal effect rating, G: green foxtail” value [1] was 0 (Herbicidal rate of 5% or less (almost no effect)), the “herbicidal effect rating, I: wild oat” value [2] was 0 (Herbicidal rate of 5% or less (almost no effect)) and the “herbicidal effect rating, L: windgrass” value [3] was 0 (Herbicidal rate of 5% or less (almost no effect)). For the same compound, the “K: Italian ryegrass, herbicidal effect” value [4, 31] was 2 (Herbicidal rate of 20% or more and less than 40%), the “herbicidal effect on D (Chinese sprangletop), rating 0-5” value ([5]; 320 g/ha) was 0 (Herbicidal rate of 5% or less (almost no effect)) and the “herbicidal effect rating, R: persian speedwell” value [6] was 0 (Herbicidal rate of 5% or less (almost no effect)). The “herbicidal effect rating, P: chickweed” value [7] was 3 (Herbicidal rate of 40% or more and less than 70%), the “P: chickweed, herbicidal effect” value [8, 31] was 5 (Herbicidal rate of 90% or more (almost completely withered)) and the “herbicidal effect rating, O: lambsquarters” value [9] was 4 (Herbicidal rate of 70% or more and less than 90%). The “I: wild oat, herbicidal effect” value [10, 31] was 0 (Herbicidal rate of 5% or less (almost no effect)), the “L: windgrass, herbicidal effect” value [11, 31] was 0 (Herbicidal rate of 5% or less (almost no effect)) and the “G: green foxtail, herbicidal effect” value [12, 31] was 2 (Herbicidal rate of 20% or more and less than 40%). The “F: southern crabgrass, herbicidal effect” value [13, 31] was 0 (Herbicidal rate of 5% or less (almost no effect)), the “herbicidal effect rating, H: barnyard grass” value [14] was 0 (Herbicidal rate of 5% or less (almost no effect)) and the “herbicidal effect rating, Q: false cleavers” value [15] was 0 (Herbicidal rate of 5% or less (almost no effect)). For the same compound, the “H: barnyard grass, herbicidal effect” value [16, 31] was 3 (Herbicidal rate of 40% or more and less than 70%), the “herbicidal effect rating, F: southern crabgrass” value [17] was 0 (Herbicidal rate of 5% or less (almost no effect)) and the “M: velvetleaf, herbicidal effect” value [18, 31] was 0 (Herbicidal rate of 5% or less (almost no effect)). The “herbicidal effect on H (barnyard grass), rating 0-5” value ([19]; 320 g/ha) was 0 (Herbicidal rate of 5% or less (almost no effect)), the “J: blackgrass, herbicidal effect” value [20, 31] was 0 (Herbicidal rate of 5% or less (almost no effect)) and the “herbicidal effect rating, K: Italian ryegrass” value [21] was 0 (Herbicidal rate of 5% or less (almost no effect)). For the same compound, the “herbicidal effect rating, N: redroot pigweed” value [22] was 0 (Herbicidal rate of 5% or less (almost no effect)), the “herbicidal effect rating, M: velvetleaf” value [23] was 3 (Herbicidal rate of 40% or more and less than 70%) and the “herbicidal effect on E (rice flat sedge), rating 0-5” value ([24]; 320 g/ha) was 4 (Herbicidal rate of 70% or more and less than 90%). For the same compound, the “R: persian speedwell, herbicidal effect” value [25, 31] was 3 (Herbicidal rate of 40% or more and less than 70%), the “herbicidal effect rating, J: blackgrass” value [26] was 0 (Herbicidal rate of 5% or less (almost no effect)) and the “N: redroot pigweed, herbicidal effect” value [27, 31] was 5 (Herbicidal rate of 90% or more (almost completely withered)). For the same compound, the “O: lambsquarters, herbicidal effect” value [28, 31] was 5 (Herbicidal rate of 90% or more (almost completely withered)).

Reference: patent US20230085307A1, “PYRIDAZINONE COMPOUND AND HERBICIDE” (NISSAN CHEMICAL CORPORATION, priority 2019, published 2023)
